Key:
[1] = Antidepressant-like effects (MED), Table 2; assay type: in vivo; conditions: minimal effective dose
Text: Table 2, below, summarizes the dose at which antidepressant-like effects are observed, the dose at which sexual dysfunction occurs, and the therapeutic window.

male Sprague-Dawley rats = assay type: in vivo, rat; conditions: for Sexual dysfunction (MED mg/kg): male, Sprague-Dawley, rat, in vivo, 30 min; for reduction of the number of penile erections relative to vehicle treated animals: sexually experienced male rats, female stimuli present, i.p. once daily
Text: In summary, male rats were allowed access to sexually receptive females during a single overnight mating session and then administered antidepressants with varying degrees of clinically reported sexual deficits. […] Animals
Intact male Sprague-Dawley rats (Charles River Laboratories) arrived at 7 weeks of age and were allowed to habituate for one week prior to sexual experience or behavioral testing. Rats were group housed in same-sex colony rooms with food and water provided ad libitum. All animals were maintained under a 12:12 light-dark cycle (lights on at 6:00 am) with behavioral experiments performed during the light hours beginning at noon.
Ovariectomized female Long-Evans rats (Charles River Laboratories) were individually housed and brought into behavioral estrus weekly by subcutaneous injection of 25 ug 17-B estradiol benzoate in 0.1 ml corn oil 48 hours prior to testing, followed by subcutaneous administration of 2.5 mg progesterone in 0.1 ml corn oil 4 to 6 hours before testing.
For subjects assigned into the sexually experienced group, the following procedures were performed. Individual male rats were placed into the home cage of a a sexually receptive female for overnight mating sessions. The cage was a Plexiglas cage measuring 10×12 inches, with food and water ad libitum. Mating pairs were randomly assigned. […] Following overnight mating sessions, males and females were separated from each other and placed back into same-sex colony rooms where they were group-housed until the time of behavioral testing.
To determine the effects of female stimuli on non-contact penile erections, sexually receptive females were brought into the testing room 30 minutes prior to the start of behavioral testing in order to provide female visual, olfactory, and auditory stimuli for males. The testing arena for observing non-contact penile erections in male rats consisted of an empty rat size Plexiglas cage (11×10 inches) containing no bedding, with an aerated plastic lid and a total ceiling height of 12 inches. […] A penile erection consisted of observation of the male rat in a hunched position grasping the penis with the forepaws and followed by a series of pelvic thrusts. The number of penile erections were quantified over a 30 minute observation session.
Following sexual experience (as described above), male subjects (n=8 per group) were administered either 10 mg/kg/day fluoxetine or saline vehicle for 14 days. On the 14th day, fluoxetine treatment was co-administered with either saline or apomorphine (0.1-0.3 mg/kg, sc) or yohimbine (0.1-0.3 mg/kg, sc) or sildenafil (0.1-0.3 mg/kg, sc) in separate experiments. Non-contact penile erections were evaluated in 30 minute test sessions in the presence of sexually receptive female rats.
Fluoxetine HCl (Tocris), desipramine (Sigma, St. Louis, Mo.) and bupropion HCl (Toronto Research Chemicals, Canada) were dissolved in 0.9% sterile saline vehicle and injected intraperitoneally (i.p.) once daily. On the day of behavioral testing, antidepressants were administered intraperitoneally (i.p.) as one hour pretreatments. For reversal experiments, apomorphine (Sigma, St. Louis, Mo.), yohimbine (Sigma, St. Louis, Mo.) or sildenafil (Toronto Research Chemicals, Canada) were used. Apomorphine was dissolved in 0.9% sterile saline vehicle and injected subcutaneously (s.c.). Yohimbine was dissolved in dH2O facilitated with 1N HCl, followed by addition of 1N NaOH for titration (pH=7) and administered intraperitoneally (i.p.). Sildenafil was dissolved in 0.9% sterile saline vehicle and administered intraperitoneally (i.p.). With the exception of fluoxetine which was administered in a dose volume of 2 ml/kg, all other test compounds were administered in a dose volume of 1 ml/kg. On the day of behavioral testing, both fluoxetine and the reversal agent (apomorphine, yohimbine, or sildenafil) were co-administered as 0 minute pretreatments. […]

[2] = test system: male Sprague Dawley CD rats; test: Reversal of MK-801 induced deficits in PPI; conditions: data generated within the applicant's lab, doses not given

Compound | Antidepressant-like effects (MED mg/kg) [1] | Sexual dysfunction (MED mg/kg) (male Sprague-Dawley rats) | reduction of the number of penile erections relative to vehicle treated animals (male Sprague-Dawley rats) | attenuation of MK-801 induced deficit in PPI (reference antipsychotics) [2]
CC(NC(C)(C)C)C(=O)c1cccc(Cl)c1 (stereo not shown) [Bupropion, bupropion] | 20 mg/kg | >20 mg/kg | 9% | –
CNCCCN1c2ccccc2CCc2ccccc21 [Desipramine, desipramine] | 10 mg/kg | 10 mg/kg | 43% | –
CNCCC(Oc1ccc(C(F)(F)F)cc1)c1ccccc1 (stereo not shown) [Fluoxetine, fluoxetine] | 10 mg/kg | 10 mg/kg | 72% | –
Cc1nc2n(c(=O)c1CCN1CCC(c3noc4cc(F)ccc34)CC1)CCCC2 [risperidone, reference compound] | – | – | – | will attenuate
